Results taken from publication PMC3605653 (The Journal of Biological Chemistry, 2013).

Legend:
[1] = target: T1, ELIC (Erwinia chrysanthemi ligand-gated ion channel) (Dickeya chrysanthemi, UniProt P0C7B7); experiment: two-electrode voltage clamp, Xenopus oocytes; type: cell-based; conditions: agonist; pH 7.4, 18 °C, -60 mV; concentration used as EC20
T1 sequence (P0C7B7 1-321): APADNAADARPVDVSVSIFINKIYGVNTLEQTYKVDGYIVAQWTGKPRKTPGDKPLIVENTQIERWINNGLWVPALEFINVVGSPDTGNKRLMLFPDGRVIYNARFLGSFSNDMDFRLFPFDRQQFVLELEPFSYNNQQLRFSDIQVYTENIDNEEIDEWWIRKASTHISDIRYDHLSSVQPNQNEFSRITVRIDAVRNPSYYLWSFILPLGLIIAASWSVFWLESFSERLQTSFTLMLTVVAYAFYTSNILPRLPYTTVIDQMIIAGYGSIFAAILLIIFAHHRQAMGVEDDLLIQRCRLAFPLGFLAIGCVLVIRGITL

[2] = target: ELIC (Erwinia chrysanthemi ligand-gated ion channel) (Dickeya chrysanthemi, UniProt P0C7B7, L239S/W223A); experiment: cell-based; conditions: read-out: remaining EC20 current (%) at 200 μM
[3] = target: ELIC (Erwinia chrysanthemi ligand-gated ion channel) (Dickeya chrysanthemi, UniProt P0C7B7, F273A/L239S); experiment: cell-based; conditions: read-out: remaining EC20 current (%) at 200 μM
[4] = target: T1, ELIC (Erwinia chrysanthemi ligand-gated ion channel); experiment: two-electrode voltage clamp, Xenopus oocytes; type: cell-based

Structure (SMILES): NCCCC(=O)O [GABA]
- EC20 [1]: 3000 µM

Structure (SMILES): BrC(Br)Br [bromoform]
- remaining activity at 200 µM [2]: 81 ± 6%
- remaining activity at 200 µM [3]: 78 ± 4%
- IC50 [4]: 125 ± 10 µM

Structure (SMILES): ClC(Cl)Cl [chloroform]
- IC50 [4]: 162 ± 26 µM
